Laboratory results from publication PMC8424369 (Journal of Pharmaceutical Analysis, 2020).

Tests used:
[1] = Stability of QC samples in transport medium; assay type: physicochemical; details: HBSS, n=3
Caco-2 cell monolayer = experiment: Bidirectional transport experiments on Caco-2 cell monolayer model; assay type: in vitro ADME, human; details: for Intestinal absorption / transport mechanism speculated from ER: comparison of Papp in two directions; for Papp(AP-BL): AP to BL; for Papp(AP-BL) / Recovery (%) BL-AP / Papp(BL-AP) / ER (efflux ratio, Papp(BL-AP)/Papp(AP-BL)): donor 10 μM, 3 h; for Papp(AP-BL) / Recovery (%) BL-AP / Papp(BL-AP): 37 °C; for Papp(AP-BL) / Papp(BL-AP): single time point, mean ± S.D. (n=3); for Recovery (%) BL-AP / Papp(BL-AP): BL to AP
[2] = as above; assay type: in vitro ADME, human; details: human, donor 10 μM, 3 h
[3] = high QC conc. (SSs 100, SGF 1000, SGD 800, SGG 2200 nM)
[4] = low QC conc. (SSs 1, SGF 10, SGD 8, SGG 22 nM)
[5] = middle QC conc. (SSs 10, SGF 100, SGD 80, SGG 220 nM)

| Stability, Autosampler (4 °C for 8 h), RE (%) [1, 3] [%] | Stability, Bench-top (room temperature for 6 h), RE (%) [1, 3] [%] | Stability, Freeze-thaw (three cycles at −80 °C), RE (%) [1, 3] [%] | Stability, Processed samples (−80 °C for 8 h), RE (%) [1, 3] [%] | Stability, Autosampler (4 °C for 8 h), RE (%) [1, 4] [%] | Stability, Bench-top (room temperature for 6 h), RE (%) [1, 4] [%] | Stability, Freeze-thaw (three cycles at −80 °C), RE (%) [1, 4] [%] | Stability, Processed samples (−80 °C for 8 h), RE (%) [1, 4] [%] | Stability, Autosampler (4 °C for 8 h), RE (%) [1, 5] [%] | Stability, Bench-top (room temperature for 6 h), RE (%) [1, 5] [%] | Stability, Freeze-thaw (three cycles at −80 °C), RE (%) [1, 5] [%] | Stability, Processed samples (−80 °C for 8 h), RE (%) [1, 5] [%] | Intestinal absorption / transport mechanism speculated from ER (Caco-2 cell monolayer) | Papp(AP-BL) (Caco-2 cell monolayer) | Recovery (%) BL-AP (Caco-2 cell monolayer) [%] | Papp(BL-AP) (Caco-2 cell monolayer) | ER (efflux ratio, Papp(BL-AP)/Papp(AP-BL)) (Caco-2 cell monolayer) | SMILES | also measured |
| --- | --- | --- | --- | --- | --- | --- | --- | --- | --- | --- | --- | --- | --- | --- | --- | --- | --- | --- |
| −1.88 | 0.62 | 1.36 | −1.50 | −3.60 | −1.06 | −7.46 | −10.40 | 0.91 | 2.00 | 8.65 | 2.87 | passive transport |  |  |  |  | C[C@H]1O[C@@H](O[C@H]2CC[C@@]3(C)[C@@H](CC[C@]4(C)[C@@H]3C=C[C@]35OC[C@@]6(CCC(C)(C)C[C@H]63)[C@@H](O)C[C@]54C)[C@]2(C)CO)[C@H](O)[C@@H](O[C@@H]2O[C@H](CO)[C@@H](O)[C@H](O)[C@H]2O)[C@H]1O [SSa] | efflux ratio at 3 h, 10 μM ([2]; Caco-2, ER (efflux ratio, Papp(BL-AP)/Papp(AP-BL))): 1.15; Papp A→B at 3 h, 10 μM ([2]; Caco-2, Papp(AP-BL), AP to BL, 37 °C, single time point, mean ± S.D. (n=3)): 0.088 ± 0.014 ×10⁻⁶ cm/s; Papp B→A at 3 h, 10 μM ([2]; Caco-2, Papp(BL-AP), BL to AP, 37 °C, single time point, mean ± S.D. (n=3)): 0.102 ± 0.031 ×10⁻⁶ cm/s; recovery at 3 h, 10 μM ([2]; Caco-2, Recovery (%) BL-AP, BL to AP, 37 °C): 77.6% |
| 5.11 | −0.27 | 8.34 | 4.04 | 0.92 | 0.01 | 2.62 | 3.52 | 0.35 | 5.34 | 3.06 | 6.93 | passive transport | 0.051 ± 0.010 × 10^−6 cm/s | 68.12 | 0.055 ± 0.011 × 10^−6 cm/s | 1.09 | C[C@H]1O[C@@H](O[C@H]2CC[C@@]3(C)[C@@H](CC[C@]4(C)[C@@H]3C=CC3=C5CC(C)(C)CC[C@]5(CO)[C@H](O)C[C@]34C)[C@]2(C)CO)[C@H](O)[C@@H](O[C@@H]2O[C@H](CO)[C@@H](O)[C@H](O)[C@H]2O)[C@H]1O [SSb2] |  |

| SMILES | Stability, Autosampler (4 °C for 8 h), RE (%) [1, 3] [%] | Stability, Bench-top (room temperature for 6 h), RE (%) [1, 3] [%] | Stability, Freeze-thaw (three cycles at −80 °C), RE (%) [1, 3] [%] | Stability, Processed samples (−80 °C for 8 h), RE (%) [1, 3] [%] | Stability, Autosampler (4 °C for 8 h), RE (%) [1, 4] [%] | Stability, Bench-top (room temperature for 6 h), RE (%) [1, 4] [%] | Stability, Freeze-thaw (three cycles at −80 °C), RE (%) [1, 4] [%] | Stability, Processed samples (−80 °C for 8 h), RE (%) [1, 4] [%] | Stability, Autosampler (4 °C for 8 h), RE (%) [1, 5] [%] | Stability, Bench-top (room temperature for 6 h), RE (%) [1, 5] [%] | Stability, Freeze-thaw (three cycles at −80 °C), RE (%) [1, 5] [%] | Stability, Processed samples (−80 °C for 8 h), RE (%) [1, 5] [%] | Intestinal absorption / transport mechanism speculated from ER (Caco-2 cell monolayer) | Papp(AP-BL) (Caco-2 cell monolayer) | Recovery (%) BL-AP (Caco-2 cell monolayer) [%] | Papp(BL-AP) (Caco-2 cell monolayer) | ER (efflux ratio, Papp(BL-AP)/Papp(AP-BL)) (Caco-2 cell monolayer) | also measured |
| --- | --- | --- | --- | --- | --- | --- | --- | --- | --- | --- | --- | --- | --- | --- | --- | --- | --- | --- |
| C[C@H]1O[C@@H](O[C@H]2CC[C@@]3(C)[C@@H](CC[C@]4(C)[C@@H]3C=C[C@]35OC[C@@]6(CCC(C)(C)C[C@H]63)[C@H](O)C[C@]54C)[C@]2(C)CO)[C@H](O)[C@@H](O[C@@H]2O[C@H](CO)[C@@H](O)[C@H](O)[C@H]2O)[C@H]1O [SSd] | −0.92 | −8.09 | 12.04 | −5.31 | −5.69 | 0.83 | −1.11 | 1.51 | −0.46 | 8.37 | 5.76 | −0.37 | certain uptake transporters were probably involved | 0.312 ± 0.020 × 10^−6 cm/s | 68.96 | 0.079 ± 0.012 × 10^−6 cm/s | 0.25 |  |
